Series [1] deals with CAL33 human HNSCC cell line. The experiment in a line: cells. The format is cell-based. The settings on record: CAL-33, MTT, 72h incubation, drug used alone. The method, then:
(§1) The 3-(4,5-dimethylthiazol-2-yl)-2,5-diphenyltetrazolium bromide (MTT) cell proliferation assay was used to determine the growth inhibitory effect of gefitinib on the Hep2, CAL33 and […] human HNSCC cell lines. […] Each measurement was done in quadruplicate and the data were expressed as % proliferation of control cells incubated in the absence of drug.

Series [2] relates to Hep2 human HNSCC cell line. The experiment in a line: cells. The format is cell-based. The method, then: as §1
Series [3] relates to PC3 human HNSCC cell line. Put plainly: cells. The settings on record: MTT, 72h incubation, drug used alone. The format is cell-based. The method, then:
as §1

The subject of series [4] is human SC131 NSCLC xenograft. The format is in vivo, nude mice. The method, then: (§2) The effect of gefitinib and PEITC alone or in combination on the growth of human tumor xenografts in nude mice was tested according to previously published procedures.
(§3) Briefly, tumor xenografts were maintained by successive s.c. transplantation of tumor fragments in 8-week old nude mice. Tumor growth curves were obtained by plotting the mean relative tumor volume (i.e. the volume at a given time divided by the volume at the start of the experiment) from groups of at least 5 mice against time. Gefitinib was administered per os at 40 or 120 mg/kg 5 days a week for 3 to 5 weeks, while PEITC dissolved in corn oil was administered per os at 20 to 90 mg/kg every 2 days.

Series [5] deals with human HEP-2 HNSCC xenograft. The arrangement: species or system nude mice. The settings on record: mouse, in vivo. On the procedure: as §2, §3
Series [6] in a line: Toxicity in treated xenograft-bearing mice (weight loss, clinical observation). To be noted: gefitinib 40 or 120 mg/kg per os 5 days a week; PEITC 20 to 90 mg/kg per os every 2 days. The format is in vivo, nude mice. On the procedure: as §3
Series [7] relates to human IC14 NSCLC xenograft. The experiment in a line: Tumor xenograft growth in nude mice. The settings on record: gefitinib 120 mg/kg per os, 5 days a week for 3 to 5 weeks. The format is in vivo. On the procedure: as §2, §3
Series [8] has as its system human IC9 NSCLC xenograft. The experiment in a line: Tumor xenograft growth in nude mice. The format is in vivo. To be noted: gefitinib 120 mg/kg per os, 5 days a week for 3 to 5 weeks. On the procedure:
as §2, §3

The test system of series [9] is human TEP NSCLC xenograft. Put plainly: Tumor xenograft growth in nude mice. The settings on record: gefitinib 120 mg/kg per os, 5 days a week for 3 to 5 weeks. The format is in vivo. The method, then: as §2, §3
The subject of series [10] is advanced NSCLC. The settings on record: 142 patients with refractory disease; cited from earlier work.
Series [11] relates to NSCLC. To be noted: gefitinib added to chemotherapy; over 2000 previously untreated NSCLC patients; cited from earlier work.

Structures are written as SMILES. pIC50: −log10 of the molar value. “Also recorded” adds a separate entry of the source.

With `S=C=NCCc1ccccc1` [PEITC, Phenylethyl isothiocyanate], the pIC50 (usually the IC50 on a negative log10 scale, so that one unit is a factor of ten) in series [1] was 3.74; in series [2] (Homo sapiens, HEP-2, MTT, 72h incubation, drug used alone), 3.46; in series [3] it was 3.31. Besides, the “inhibition of tumor growth” value in [4] (mouse, in vivo) is reported as “neither gefitinib or PEITC had any antitumor effect”; in [5], “neither gefitinib or PEITC had any antitumor effect”. Moreover, the “toxicity, judged by absence of weight loss and clinical observation” value in [6] is “No toxicity was observed”.

For the molecule `COc1cc2ncnc(Nc3ccc(F)c(Cl)c3)c2cc1OCCCN1CCOCC1` [gefitinib, Gefitinib], the “increase in the IC50 for gefitinib, compared with CAL33 and PC3” value in series [2] (Hep2 versus CAL33 and PC3) was 4 fold. Further, the tumor growth response result is given as “responded” in [7]; “sensitive; also recorded: responded” in series [8]; “responded” in series [9]; “refractory; also recorded: did not respond” in series [4] (gefitinib 120 mg/kg per os, 5 days a week for 3 to 5 weeks). For the same molecule, the “toxicity, judged by absence of weight loss and clinical observation” value in series [6] was “No toxicity was observed”. Moreover, the response rate in series [10] is given as 10%. Besides, in [11], the “benefit in survival, tumor response, or time to progression” value is reported as “no benefit”.

The values above are taken from EP1564305A2, “Means for detecting and treating cancer cells resistant to therapeutic agents” (priority 2004, dated 2005).
